Each structure is given as a SMILES string.

S1P1, sequence (P21453 whole entry, the tested form may be a part): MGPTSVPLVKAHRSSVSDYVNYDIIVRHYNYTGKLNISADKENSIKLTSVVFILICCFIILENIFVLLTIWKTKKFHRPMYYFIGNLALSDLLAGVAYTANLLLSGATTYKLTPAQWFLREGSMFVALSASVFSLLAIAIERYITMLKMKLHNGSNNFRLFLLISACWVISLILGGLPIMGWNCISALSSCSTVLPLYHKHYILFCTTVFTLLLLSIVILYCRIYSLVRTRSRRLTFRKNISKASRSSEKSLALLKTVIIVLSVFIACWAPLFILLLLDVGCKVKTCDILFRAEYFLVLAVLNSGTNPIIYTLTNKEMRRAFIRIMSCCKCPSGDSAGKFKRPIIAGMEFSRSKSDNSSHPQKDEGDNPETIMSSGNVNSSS
S1P1, sequence (P32121 whole entry partner, the tested form may be a part): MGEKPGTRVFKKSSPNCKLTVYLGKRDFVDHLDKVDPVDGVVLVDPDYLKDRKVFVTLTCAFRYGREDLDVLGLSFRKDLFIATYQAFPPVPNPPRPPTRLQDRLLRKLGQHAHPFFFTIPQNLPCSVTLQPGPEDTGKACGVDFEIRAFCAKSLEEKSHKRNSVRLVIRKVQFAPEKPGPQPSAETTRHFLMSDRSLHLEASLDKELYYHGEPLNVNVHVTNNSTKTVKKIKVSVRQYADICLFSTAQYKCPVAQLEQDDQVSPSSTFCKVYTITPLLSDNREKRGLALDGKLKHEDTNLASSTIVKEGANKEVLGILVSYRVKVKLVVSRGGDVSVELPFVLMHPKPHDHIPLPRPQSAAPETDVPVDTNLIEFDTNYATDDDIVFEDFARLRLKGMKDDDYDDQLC

The target of the first experiment is S1P1 (Homo sapiens, UniProt P21453). Description: Tango β-arrestin Recruitment Assay in U2OS cells (Assay 2b). The class given is cell-based. Also on record: linker with TEV protease (N1a) cleavage site (C). Conditions: Tango β-arrestin Recruitment Assay, read-out: Assay 2b EC50. An excerpt:
For the Tango™ β-arrestin recruitment assay, the cytoplasmic C-terminus of S1P1 is tethered to the tTA transcriptional activator with a linker that contains a cleavage site for the N1a protease from tobacco etch virus (TEV protease). The C-terminus of the human β-arrestin2 protein is fused to TEV protease. Binding of an agonist recruits the β-arrestin-TEV fusion protein to the receptor resulting in cleavage of the linker and release of tTA to enter the nucleus and subsequently activate a tTA-dependent luciferase reporter gene.
Alternatively, U2OS cells expressing the reporter gene and S1P1 (Invitrogen) were added to the wells of a 384-well white opaque bottom assay plate (PerkinElmer) at […] per well. The cells were serum starved for 48 h in Freestyle medium (Invitrogen). Test compounds were tested at maximum concentrations of 1 μM for the agonist assay. Compounds were diluted in DMSO (10 concentration points, 3-fold each) and added to the assay plate at a 1% final DMSO concentration. The efficacy control was 1 μM S1P (Avanti). For each compound, there were duplicate assay plates and each assay plate had duplicate wells per concentration point. The plate was incubated overnight at 37° C. The GeneBLAzer β-lactamase assay reagent (Invitrogen) was added and the plates were incubated for an additional 2 h at room temperature. Fluorescence was measured using an EnVision plate reader (PerkinElmer, Waltham, Mass.) at an excitation wavelength of 409 nm and emission wavelengths of 460 nm and 530 nm. The emission intensity at each wavelength was background subtracted against wells containing medium only and the F460 nm/F530 nm ratio determined for each concentration of the test compounds. Percent activity was calculated as [(test compound ratio−DMSO ratio)/(positive control ratio−DMSO ratio)*100], where the positive control and DMSO ratios are from cells incubated with the efficacy control 1 μM S1P and 1% DMSO, respectively. The percent activities were plotted against compound concentration to determine EC50 using XLFit (IDBS).
Assay 1 is the CNG cAMP Assay as described in Biological Example 1. Assay 2a and 2b are the Tango™ β-arrestin Recruitment Assay in HEK293 and U2OS cells, respectively, as described in Biological Example 2. Assay 3a is the hS1P1R GTPγS Binding Assay as described in Biological Example 3. Assay 3b is the GTP-Eu Binding Assay as described in Biological Example 3. EC50's were measured unless otherwise noted. […] In the table, “nt” means the Compound was not tested and “no” means the compound was tested but had no measurable activity under the assay conditions employed.
On the technique in general: Recruitment of arrestin is a read-out of receptor activation apart from second messengers.
With `CC(O)COc1cc(Cl)c(-c2nnc(-c3cn4cc(C(F)(F)F)cc(Cl)c4n3)o2)cc1Cl` (centres unmarked) [Entry 4], the EC50 was no more than 100 nM.

Regarding `O=C(O)CC(=O)COc1cc(Cl)c(-c2noc(-c3cn4cc(C(F)(F)F)cc(Cl)c4n3)n2)cc1Cl` [Entry 5], the EC50 is no more than 100 nM. For the molecule `O=P(O)(O)OC(CO)COc1cc(Cl)c(-c2noc(-c3cn4cc(C(F)(F)F)cc(Cl)c4n3)n2)cc1Cl` (centres unmarked) [Entry 9], the 50% effective concentration (EC50) was no more than 100 nM. Still for that read-out and setting: with `CS(=O)(=O)COc1cc(Cl)c(-c2noc(-c3cn4cc(C(F)(F)F)cc(Cl)c4n3)n2)cc1Cl` [Entry 12] the figure was no more than 100 nM; with `CC(O)COc1cc(Cl)c(-c2nnc(-c3cn4cc(C(F)(F)F)cc(Cl)c4n3)s2)cc1Cl` (centres unmarked) [Entry 13], no more than 100 nM. Take `C[C@@H](COc1cc(Cl)c(-c2noc(-c3cn4cc(C(F)(F)F)cc(Cl)c4n3)n2)cc1Cl)OP(=O)(O)O` [Entry 14]: the concentration for a half-maximal effect (EC50) was no more than 100 nM. The same measure, in the same setting: with `NC(COc1cc(Cl)c(-c2noc(-c3cn4cc(C(F)(F)F)cc(Cl)c4n3)n2)cc1Cl)COP(=O)(O)O` (centres unmarked) [Entry 15] the figure was no more than 100 nM; with `O=C(COc1cc(Cl)c(-c2noc(-c3cn4cc(C(F)(F)F)cc(Cl)c4n3)n2)cc1Cl)C(F)(F)F` [Entry 18], no more than 100 nM. Consider `OCC(O)CNc1cc(Cl)c(-c2noc(-c3cn4cc(C(F)(F)F)cc(Cl)c4n3)n2)cc1Cl` (centres unmarked) [Entry 29], for which the EC50 is no more than 100 nM. Same read-out and setting: under `OCCNc1cc(Cl)c(-c2noc(-c3cn4cc(C(F)(F)F)cc(Cl)c4n3)n2)cc1Cl` [Entry 30] stands no more than 100 nM; under `O=C(CO)COc1cc(Cl)c(-c2noc(-c3cn4cc(C(F)(F)F)cc(Cl)c4n3)n2)cc1Cl` [Entry 34], no more than 100 nM; under `N[C@H](CO)COc1cc(Cl)c(-c2nnc(-c3cn4cc(C(F)(F)F)ccc4n3)s2)cc1F` [Entry 43], no more than 100 nM. `CC(N)(CO)COc1cc(Cl)c(-c2nnc(-c3cn4cc(C(F)(F)F)ccc4n3)s2)cc1F` (centres unmarked) [Entry 44]: the EC50 is no more than 100 nM. As for `COc1ccc2nc(-c3nnc(-c4cc(F)c(OCC(N)CO)cc4Cl)s3)cn2c1` (centres unmarked) [Entry 45], the EC50 was no more than 100 nM. Turning to `CC(N)(CO)COc1cc(Cl)c(-c2nnc(-c3cn4cc(C(F)(F)F)cc(Cl)c4n3)s2)cc1F` (centres unmarked) [Entry 46], the EC50 was no more than 100 nM. Regarding `O=C(COc1cc(Cl)c(-c2noc(-c3cn4cc(C(F)(F)F)cc(Cl)c4n3)n2)cc1Cl)COP(=O)(O)O` [Entry 51], the EC50 is no more than 100 nM. On to `O=P(O)(O)COc1cc(Cl)c(-c2noc(-c3cn4cc(C(F)(F)F)cc(Cl)c4n3)n2)cc1Cl` [Entry 52], for which the EC50 was no more than 100 nM. Consider `O=P(O)(O)OCC(O)COc1cc(Cl)c(-c2noc(-c3cn4cc(C(F)(F)F)cc(Cl)c4n3)n2)cc1Cl` (centres unmarked) [Entry 53], for which the EC50 is no more than 100 nM. In the case of `OCC(CO)NCCOc1cc(Cl)c(-c2noc(-c3cn4cc(C(F)(F)F)cc(Cl)c4n3)n2)cc1Cl` [Entry 65], the EC50 was no more than 100 nM. For the molecule `NC(CO)COc1cc(Cl)c(-c2nc(-c3cn4cc(C(F)(F)F)cc(Cl)c4n3)no2)cc1Cl` (centres unmarked) [Example 80, 2-amino-3-[(2,5-dichloro-4-{3-[8-chloro-6-(trifluoromethyl)imidazo[1,2-a]pyridin-2-yl]-1,2,4-oxadiazol-5-yl}phenyl)oxy]propan-1-ol], the EC50 was no more than 100 nM. In the case of `NC(COc1cc(Cl)c(-c2nnc(-c3cn4cc(C(F)(F)F)cc(Cl)c4n3)s2)cc1F)COP(=O)(O)O` (centres unmarked) [Example 82, 2-amino-3-[(5-chloro-4-{5-[8-chloro-6-(trifluoromethyl)imidazo[1,2-a]pyridin-2-yl]-1,3,4-thiadiazol-2-yl}-2-fluorophenyl)oxy]propyl dihydrogen phosphate], the EC50 was no more than 100 nM.

For `NC(CO)COc1cc(Cl)c(-c2nnc(-c3cn4cc(C(F)(F)F)ccc4n3)s2)cc1Cl` (centres unmarked) [Example 100, 2-amino-3-[(2,5;dichloro-4-{5-[6-(trifluomethyl)imidazo[1,2-a]pyridin-2-yl] 1,3,4-thiadiazol-2-yl}phenyl)oxy]propan-1-ol], the EC50 is no more than 100 nM. Take `NC(CO)COc1cc(Cl)c(-c2nnc(-c3cn4cc(Cl)ccc4n3)s2)cc1F` (centres unmarked) [Example 101, 2-amino-3-({5-chloro-4-[5-(6-chloroimidazo[1,2-a]pyridin-2-yl)-1,3,4-thiadiazol-2-yl]-2-fluorophenyl}oxy)propan-1-ol]: the EC50 is no more than 100 nM. Still for that read-out and setting: under `NC(CO)COc1cc(Cl)c(-c2nnc(-c3cn4cc(I)ccc4n3)s2)cc1F` (centres unmarked) [Example 102, 2-amino-3-({5-chloro-2-fluoro-4-[5-(6-iodoimidazo[1,2-a]pyridin-2-yl)-1,3,4-thiadiazol-2-yl]phenyl}oxy)propan-1-ol] stands no more than 100 nM; under `NC(CO)(CO)CCc1cc(Cl)c(-c2noc(-c3cn4cc(C(F)(F)F)cc(Cl)c4n3)n2)cc1F` [Example 154, 2-amino-2-[2-(5-chloro-4-{5-[8-chloro-6-(trifluoromethyl)imidazo[1,2-a]pyridin-2-yl]-1,2,4-oxadiazol-3-yl}-2-fluorophenyl)ethyl]propane-1,3-diol], no more than 100 nM; under `C[C@H](CO)Oc1cc(Cl)c(-c2noc(-c3cn4cc(C(F)(F)F)cc(Cl)c4n3)n2)cc1Cl` [Example 155, (2R)-2-[(2,5-dichloro-4-{5-[8-chloro-6-(trifluoromethyl)imidazo[1,2-a]pyridin-2-yl]-1,2,4-oxadiazol-3-yl}phenyl)oxy]propan-1-ol], no more than 100 nM. Same read-out and setting: under `C[C@@H](CO)Oc1cc(Cl)c(-c2noc(-c3cn4cc(C(F)(F)F)cc(Cl)c4n3)n2)cc1Cl` [Example 156, (2S)-2-[(2,5-dichloro-4-{5-[8-chloro-6-(trifluoromethyl)imidazo[1,2-a]pyridin-2-yl]-1,2,4-oxadiazol-3-yl}phenyl)oxy]propan-1-ol] stands no more than 100 nM; under `CC(O)COc1cc(Cl)c(-c2nc(-c3cn4cc(C(F)(F)F)cc(Cl)c4n3)no2)cc1Cl` (centres unmarked) [Example 178, 1-[(2,5-dichloro-4-{3-[8-chloro-6-(trifluoromethyl)imidazo[1,2-a]pyridin-2-yl]-1,2,4-oxadiazol-5-yl}phenyl)oxy]propan-2-ol], no more than 100 nM.

Regarding `CC(O)COc1cc(Cl)c(-c2nnc(-c3cn4cc(C(F)(F)F)cc(Cl)c4n3)o2)cc1F` (centres unmarked) [Example 179, 1-[(5-chloro-4-{5-[8-chloro-6-(trifluoromethyl)imidazo[1,2-a]pyridin-2-yl]-1,3,4-oxadiazol-2-yl}-2-fluorophenyl)oxy]propan-2-ol], the EC50 lay within 100 to 500 nM. Regarding `CC(O)COc1cc(Cl)c(-c2nc(-c3cn4cc(C(F)(F)F)cc(Cl)c4n3)no2)cc1F` (centres unmarked) [Example 184, 1-[(5-chloro-4-{3-[8-chloro-6-(trifluoromethyl)imidazo[1,2-a]pyridin-2-yl]-1,2,4-oxadiazol-5-yl}-2-fluorophenyl)oxy]propan-2-ol], the EC50 is no more than 100 nM. The same measure, in the same setting: with `CC(O)CCc1cc(Cl)c(-c2noc(-c3cn4cc(C(F)(F)F)cc(Cl)c4n3)n2)cc1Cl` (centres unmarked) [Example 185, 4-(2,5-dichloro-4-{5-[8-chloro-6-(trifluoromethyl)imidazo[1,2-a]pyridin-2-yl]-1,2,4-oxadiazol-3-yl}phenyl)butan-2-ol] the figure was no more than 100 nM; with `N[C@@H](CO)COc1cc(Cl)c(-c2nnc(-c3cn4cc(C(F)(F)F)cc(Cl)c4n3)s2)cc1Cl` [Example 201, (2S)-2-amino-3-[(2,5-dichloro-4-{5-[8-chloro-6-(trifluoromethyl)imidazo[1,2-a]pyridin-2-yl]-1,3,4-thiadiazol-2-yl}phenyl)oxy]propan-1-ol], no more than 100 nM; with `O=C(O)C1CC1c1cc(Cl)c(-c2noc(-c3cn4cc(C(F)(F)F)cc(Cl)c4n3)n2)cc1Cl` (centres unmarked) [Example 211, 2-(2,5-dichloro-4-{5-[8-chloro-6-(trifluoromethyl)imidazo[1,2-a]pyridin-2-yl]-1,2,4-oxadiazol-3-yl}phenyl)cyclopropanecarboxylic acid], no more than 100 nM.

The experiment is the same for the next values; noted with them: Tango β-arrestin Recruitment Assay, relative EC50 was measured (footnote 1), read-out: Assay 2b Relative EC50.
For `CC(C)(CO)Oc1cc(Cl)c(-c2noc(-c3cn4cc(C(F)(F)F)cc(Cl)c4n3)n2)cc1Cl` [Entry 26], the EC50 was 100 to 500 nM.

The same experiment, now with this note: Tango β-arrestin, footnote 1: Relative EC50 was measured, read-out: Assay 2b Relative EC50.
Consider `NC(CO)COc1cc(Cl)c(-c2nnc(-c3cn4cc(C(F)(F)F)cc(Cl)c4n3)o2)cc1Cl` (centres unmarked) [Example 202, 2-amino-3-[(2,5-dichloro-4-{5-[8-chloro-6-(trifluoromethyl)imidazo[1,2-a]pyridin-2-yl]-1,3,4-oxadiazol-2-yl}phenyl)oxy]propan-1-ol], for which the EC50 was 100 to 500 nM.

The term EC50 denotes the concentration at which the effect is half-maximal.

For the origin of these results see patent publication US20100160369A1, “S1P1 Agonists and Methods of Making And Using” (EXELIXIS, INC., priority 2008, published 2010).
